Legend:
Assay in all cases: relative viability (nuclei count vs DMSO), 5 days (fraction); higher = more cells survive
Vismodegib + Alpelisib = compound: CS(=O)(=O)c1ccc(C(=O)Nc2ccc(Cl)c(-c3ccccn3)c2)c(Cl)c1 [Vismodegib] + Cc1nc(NC(=O)N2CCC[C@H]2C(N)=O)sc1-c1ccnc(C(C)(C)C(F)(F)F)c1 [Alpelisib] (partner 2 µM)
How it was run: (§1)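 Lung cancer cell lines in 1536-well plates got either a single drug or a fixed anchor-drug dose together with five library-drug doses (not always all listed) in √10 steps, by pin tool, on the day after seeding. Nuclei were counted after 5 days, and relative viability is the treated-to-vehicle ratio of nuclei counts. Values are medians of duplicate plates.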

Ruxolitinib + Luminespib = compound: N#CC[C@H](C1CCCC1)n1cc(-c2ncnc3[nH]ccc23)cn1 [Ruxolitinib] + CCNC(=O)c1noc(-c2cc(C(C)C)c(O)cc2O)c1-c1ccc(CN2CCOCC2)cc1 [Luminespib] (partner 0.01 µM)
How it was run: as §1

VE-821 + Palbociclib = compound: CS(=O)(=O)c1ccc(-c2cnc(N)c(C(=O)Nc3ccccc3)n2)cc1 [VE-821] + CC(=O)c1c(C)c2cnc(Nc3ccc(N4CCNCC4)cn3)nc2n(C2CCCC2)c1=O [Palbociclib] (partner 0.5 µM)
How it was run: as §1

Vismodegib + Trametinib = compound: CS(=O)(=O)c1ccc(C(=O)Nc2ccc(Cl)c(-c3ccccn3)c2)c(Cl)c1 [Vismodegib] + CC(=O)Nc1cccc(-n2c(=O)n(C3CC3)c(=O)c3c(Nc4ccc(I)cc4F)n(C)c(=O)c(C)c32)c1 [Trametinib] (partner 0.02 µM)
How it was run: as §1

Row | Cell Line | relative viability (Vismodegib + Alpelisib; first compound 0.08 µM) | relative viability (Vismodegib + Alpelisib; first compound 0.253 µM) | relative viability (Vismodegib + Alpelisib; first compound 0.8 µM) | relative viability (Vismodegib + Alpelisib; first compound 2.53 µM) | relative viability (Vismodegib + Alpelisib; first compound 8 µM) | relative viability (Ruxolitinib + Luminespib; first compound 0.08 µM) | relative viability (Ruxolitinib + Luminespib; first compound 0.253 µM) | relative viability (Ruxolitinib + Luminespib; first compound 0.8 µM) | relative viability (Ruxolitinib + Luminespib; first compound 2.53 µM) | relative viability (Ruxolitinib + Luminespib; first compound 8 µM) | relative viability (VE-821 + Palbociclib; first compound 0.08 µM) | relative viability (VE-821 + Palbociclib; first compound 0.253 µM) | relative viability (VE-821 + Palbociclib; first compound 0.8 µM) | relative viability (VE-821 + Palbociclib; first compound 2.53 µM) | relative viability (VE-821 + Palbociclib; first compound 8 µM) | relative viability (Vismodegib + Trametinib; first compound 0.08 µM) | relative viability (Vismodegib + Trametinib; first compound 0.253 µM) | relative viability (Vismodegib + Trametinib; first compound 0.8 µM) | relative viability (Vismodegib + Trametinib; first compound 2.53 µM) | relative viability (Vismodegib + Trametinib; first compound 8 µM)
1 | LU99A | 0.617 | 0.544 | 0.474 | 0.499 | 0.556 | 0.224 | 0.265 | 0.353 | 0.23 | 0.23 | 0.426 | 0.456 | 0.434 | 0.408 | 0.267 | 0.586 | 0.524 | 0.536 | 0.531 | 0.539
2 | SW 1573 | 0.7 | 0.691 | 0.717 |  | 0.754 | 0.228 | 0.214 | 0.184 | 0.241 | 0.21 | 0.419 | 0.439 | 0.449 | 0.353 | 0.315 | 0.571 | 0.522 | 0.609 | 0.548 | 0.552
3 | NCI-H2009 | 1.12 | 1.14 | 1.19 | 1.11 | 1.22 | 0.99 | 1.1 | 0.99 | 0.93 | 0.817 | 0.204 | 0.215 | 0.234 | 0.18 | 0.188 | 0.313 | 0.321 | 0.309 | 0.291 | 0.331
4 | HCC-15 | 0.894 | 0.822 | 0.871 | 0.866 | 0.83 | 0.345 | 0.216 | 0.555 | 0.302 | 0.203 | 0.822 | 0.767 | 0.809 | 0.907 | 0.748 | 0.356 | 0.352 | 0.345 | 0.401 | 0.383

From the supplement of paper PMC10307832
